# Source: patent US20140100248A1, “Novel Heterocyclic Compounds as Modulators of Sphingolipid Signaling and Uses Thereof” (UNIVERSITÄT BERN, priority 2011, published 2014)
# How the values were obtained:
# [1] = test system: breast cancer cell lines (MCF-7, MDA-MB-231 and Sk-Br-3) and colon cancer cell lines (HCT-116 and SW620); conditions: cited from earlier work; for growth inhibition: Nagaoka et al. 2008, in the concentration tested
# [2] = test system: colon cancer cell line HCT-116; assay: colony formation assay; format: cell-based, human; conditions: HCT-116, 10 days of treatment
# Experimental: Cells were seeded at a density of 700 cells per 60 mm-diameter dish in growth medium. After 24 h, cells were treated with either vehicle (Co) or the indicated concentrations (in μM) of FTY720, myriocin (myrio), ST-968, and ST-1071, and further cultured for 10 days at 37° C. Thereafter, colonies were stained and quantified as described in the Methods Section. […] Rat renal mesangial cells were isolated, characterized, and cultured as previously described (Pfeilschifter et al., 1984). For the experiments performed in this study, cells between passages 8-30 were used. The human endothelial cell line EA.hy 926 was cultured in RPMI medium containing 10% (v/v) fetal bovine serum, 10 mM Hepes, pH 7.4, 100 units/ml penicillin, and 100 μg/ml streptomycin. HCT-116 colon carcinoma cells were cultured in McCoy medium including 10% (v/v) fetal bovine serum, 100 units/ml penicillin, and 100 μg/ml streptomycin. Prior to stimulation, all cells were rendered quiescent for 24 h in DMEM including 0.1 mg/ml of fatty acid-free bovine serum albumin (BSA). Cells were subcultured in 60 mm-diameter dishes at a density of 700 cells per dish. After 24 h, cells were treated with the indicated concentrations of the different compounds in growth medium and incubated for further 10 days to allow colony formation. Cells were then washed with PBS, air dried, and stained for 30 min with 2% (w/v) crystal violet, washed with water and air dried again. The number of colonies was quantified using a ColCount™ (Mammalian Cell Colony Counter, Oxford Optronix, Oxford, U.K.). Only colonies containing more than 50 cells were evaluated.
# MCF-7 cells = conditions: Nagaoka et al. 2008; cited from earlier work
# [3] = test system: p42/44-MAPK phosphorylation in EA.hy 926 cells; assay: MAPK/ERK phosphorylation in the endothelial cell line EA.hy 926, Western blot; format: cell-based, human; conditions: 1 μM
# Experimental: Confluent EA.hy 926 cells were treated either for 10 min (left side) or for 4 h (right side) with either vehicle (Co), S1P (1 μM), or ST-968 (1 μM). Thereafter, cell lysates containing 30 μg of protein were separated by SDS-PAGE, transferred to nitrocellulose and subjected to Western blot analysis using antibodies against phospho-ERK½ (dilution of 1:1000; A, upper panel), and total p42/ERK2 and p44/ERK1(dilutions each 1:6000; B, lower panel). Blots were stained by the ECL method according to the manufacturer's recommendation. Bands corresponding to the phospho-ERKs were densitometrically evaluated and results are depicted as % of control and are means ±S.D. ([…]).
# (§1) Rat renal mesangial cells were isolated, characterized, and cultured as previously described (Pfeilschifter et al., 1984). For the experiments performed in this study, cells between passages 8-30 were used. The human endothelial cell line EA.hy 926 was cultured in RPMI medium containing 10% (v/v) fetal bovine serum, 10 mM Hepes, pH 7.4, 100 units/ml penicillin, and 100 μg/ml streptomycin. HCT-116 colon carcinoma cells were cultured in McCoy medium including 10% (v/v) fetal bovine serum, 100 units/ml penicillin, and 100 μg/ml streptomycin. Prior to stimulation, all cells were rendered quiescent for 24 h in DMEM including 0.1 mg/ml of fatty acid-free bovine serum albumin (BSA).
# Confluent mesangial cells were stimulated as indicated in the figure legends in Dulbecco's modified Eagle medium (DMEM) supplemented with 0.1 mg/ml of fatty acid-free bovine serum albumin and 10 mM HEPES. After stimulation, the supernatant was taken for PGE2 or NO quantification and for detection of secreted IIA-sPLA2. The cell monolayers were homogenized in lysis buffer and processed exactly as previously described (Huwiler et al., 2006). Cell lysates were taken for protein determination. […] Bands were detected by enhanced chemiluminescence method as recommended by the manufacturer.
# [4] = test system: p42/44-MAPK phosphorylation in renal mesangial cells; assay: MAPK/ERK (p42/44) phosphorylation in renal mesangial cells, Western blot; format: cell-based, rat; conditions: for agonistic potential on S1P receptors: concluded from MAPK/ERK activation and antagonist experiments; for p42/44 phosphorylation (p42/44-MAPK activity): rat renal mesangial cells, stimulation for 10 min; for effect on ST-968-induced p42/44 activation: pretreatment with pertussis toxin 100 ng/ml 16 h, or VPC23019 10 μM or W146 10 μM 30 min, then ST-968 1 μM 10 min
# Experimental: (A+B): Confluent mesangial cells were pretreated for 16 h with pertussis toxin (100 ng/ml), or for 30 min with vehicle (−), VPC23019 (10 μM) and W146 (10 μM) prior to stimulation for 10 min with either vehicle (Co) or ST-968 (1 μM). (C): Cells were stimulated for 10 min with either vehicle (Co) or the indicated concentrations (in μM) of S1P and ST-1071. Thereafter, cell lysates containing 30 μg of protein were separated by SDS-PAGE, transferred to nitrocellulose and subjected to Western blot analysis using antibodies against phospho-p42/44 (dilution of 1:1000; A, upper panel) and total p42/ERK2 and p44/ERK1 (dilution 1:6000 each; B, lower panel). Blots were stained by the ECL method according to the manufacturer's recommendation. Bands corresponding to the phospho-p42/44 and total ERKs were densitometrically scanned and evaluated (B). Results in B are depicted as % of ST-968 stimulation and are means ±S.D. (n=3).
# as §1
# Confluent mesangial cells were stimulated as indicated in the figure legends in Dulbecco's modified Eagle medium (DMEM) supplemented with 0.1 mg/ml of fatty acid-free bovine serum albumin and 10 mM HEPES. After stimulation, the supernatant was taken for PGE2 or NO quantification and for detection of secreted IIA-sPLA2. The cell monolayers were homogenized in lysis buffer and processed exactly as previously described (Huwiler et al., 2006). Cell lysates were taken for protein determination. Lysates containing equal amounts of protein, were separated by sodium dodecylsulfate-polyacrylamide gel electrophoresis (SDS-PAGE), transferred to nitrocellulose membranes and subjected for Western blot analysis using antibodies as indicated in the figure legends. Bands were detected by enhanced chemiluminescence method as recommended by the manufacturer.
# [5] = test system: secretory phospholipase A2 (sPLA2) expression; assay: cytokine-triggered secretory phospholipase A2 expression in renal mesangial cells, Western blot; format: cell-based, rat; conditions: IL-1β 1 nM plus forskolin 10 μM, 24 h, increasing doses of ST-968
# Experimental: Cells were treated for 24 h with either vehicle (−, 0) or with interleukin 1 β (1 nM) plus forskolin (10 μM) (IL-1/Fk, +) in the absence (0) or presence of the indicated concentrations of ST-968. Thereafter, supernatants were collected and equal volumes were taken for protein precipitation using trichloroacetic acid. Equal aliquots were separated by SDS-PAGE, transferred to nitrocellulose and subjected to Western blot analysis using a monoclonal antibody against rat sPLA2 at a dilution of 1:60. Blots were stained by the ECL method according to the manufacturer's recommendation. Data are representative of two independent experiments giving similar results.
# Confluent mesangial cells were stimulated as indicated in the figure legends in Dulbecco's modified Eagle medium (DMEM) supplemented with 0.1 mg/ml of fatty acid-free bovine serum albumin and 10 mM HEPES. After stimulation, the supernatant was taken for PGE2 or NO quantification and for detection of secreted IIA-sPLA2. The cell monolayers were homogenized in lysis buffer and processed exactly as previously described (Huwiler et al., 2006). Cell lysates were taken for protein determination. […] Bands were detected by enhanced chemiluminescence method as recommended by the manufacturer. […]
# [6] = test system: nitric oxide (NO) formation; assay: cytokine-triggered nitric oxide release from renal mesangial cells, Griess reagent; format: cell-based, rat; conditions: IL-1β 1 nM plus forskolin 10 μM, 24 h
# Experimental: Cells were treated for 24 h with either vehicle (−) or with interleukin 1 β (1 nM) plus forskolin (10 μM) (IL-1/Fk, +) in the absence or presence of the indicated concentrations of ST-968 (in μM), or betamethasone (in nM). Thereafter, supernatants were collected and nitrite was quantified by using the Griess reagent.
# Quiescent mesangial cells in 24-well plates were stimulated as indicated, and the supernatants were taken for nitrite determination using Griess reagent as described (Green et al., 1982).
# EA.hy 926 cells = assay: serum-stimulated migration of endothelial cells, adapted Boyden chamber assay; format: cell-based, human; conditions: 10% serum, 6 h, at 3 μM and 10 μM
# Experimental: Serum-starved EA. by 926 cells in 8 μM-polycarbonate inserts were treated for 6 h with 10% serum in the absence or presence of the indicated concentrations of ST-968 or ST-1071. Migrated cells were stained with DAPI and counted in a fluorescence microscop.
# EA.hy 926 cells were cultured for 24 h under serum-free conditions. Chemotaxis was measured in Cell Culture Inserts (polycarbonate-coated membranes, […] pore size). The lower compartment was filled with serum-free DMEM and 1.7×10^5 cells were seeded per insert in the absence or presence of the indicated stimuli and inhibitors. After the indicated time periods, non-migrated cells were mechanically removed from the membrane and cells that had migrated into the membrane were fixed in 4% paraformaldehyde in PBS and stained with lug/ml of 4′,6-diamidino-2-phenylindole (DAPI). DAPI-stained cells were counted using a fluorescence microscope. Each data point is the average number of cells in five random fields and is the mean of four individual wells.
compound,measurement,setting,value
"CCCCCCCCc1ccc(CCC(N)(CO)CO)cc1.Cl [FTY720, 2-Amino-2[2-(4-octylphenyl)ethyl]propane-1,3-diol, reference compound]",growth inhibition,[1],significant growth inhibition
same,colony formation,[2],completely abolished colony formation
"CCCCCCCCc1ccc(CC[C@](N)(CO)COP(=O)(O)O)cc1 [FTY720-P, FTY720-1-phosphate]",growth of MCF-7 cells,MCF-7 cells,slightly induced the growth
same,growth inhibition,[1],did not inhibit the growth
"CCCCCCCCCCCCC/C=C/[C@@H](O)[C@@H](N)COP(=O)(O)O [S1P, sphingosine-1-phosphate]",growth of MCF-7 cells,MCF-7 cells,slightly induced the growth
same,growth inhibition,[1],did not inhibit the growth
same,"p42/44 phosphorylation, S1P compared with ST-968",[3]; 10 min of stimulation,more potent to increase p42/44 phosphorylation than ST-968
"CCCCCCCCc1ccc(CCC23COCN2COC3)cc1 [ST-968, 7a-(4-Octylphenethyl)Tetrahydro-1H-Oxazolo[3,4-c]Oxazole]",agonistic potential on S1P receptors,[4],have agonistic potential on one or several of the S1P receptors
same,agonistic potential on S1P receptors,[4]; listed as ST 968,exhibited agonistic potential for one or several of the S1P receptor subtypes
same,p42/44 phosphorylation (p42/44-MAPK activity),[4],increased p42/44 phosphorylation
same,colony formation,[2],strongly reduced colony formation
same,colony formation,[2]; listed as ST 968,inhibited and/or reduced the colony formation
same,sPLA2 expression,[5],reduced
same,IL-1β/forskolin induced NO formation,[6],dose-dependently reduced
same,serum-stimulated migration,EA.hy 926 cells,able to reduce serum-stimulated migration
same,activation of the p42/44-MAPK cascade,[3],could activate the p42/44-MAPK cascade
same,"p42/44 phosphorylation, ST-968 compared with S1P",[3]; 4 h of stimulation,more potently increasing p42/44 phosphorylation than S1P
"CCCCCCCOc1ccc(CCC23COCN2COC3)cc1 [ST-1071, 7a-(4-(Heptyloxy)Phenethyl)Tetrahydro-1H-Oxazolo[3,4-c]Oxazole]",agonistic potential on S1P receptors,[4],have agonistic potential on one or several of the S1P receptors
same,agonistic potential on S1P receptors,[4]; listed as ST1071,exhibited agonistic potential for one or several of the S1P receptor subtypes
same,p42/44 phosphorylation (p42/44-MAPK activity),[4],stimulated p42/44 phosphorylation after 10 min in a concentration-dependent manner
same,potency on p42/44 phosphorylation compared with S1P,"[4]; renal mesangial cells, 10 min",less potent than S1P
same,colony formation,[2],strongly reduced colony formation
same,colony formation,[2]; listed as ST 1071,inhibited and/or reduced the colony formation
same,serum-stimulated migration,EA.hy 926 cells,able to reduce serum-stimulated migration
"CCCCCCCCc1cccc(NC(=O)[C@H](N)COP(=O)(O)O)c1 [VPC23019, reference compound]",effect on ST-968-induced p42/44 activation,[4],completely abolished
"CCCCCCc1cccc(NC(=O)[C@H](N)CCP(=O)(O)O)c1 [W146, (R)-3-amino-(3-hexylphenylamino)-4-oxobutylphosphonic acid, reference compound]",effect on ST-968-induced p42/44 activation,[4],had no effect
CCCCCCCCCCCCC/C=C/[C@@H](O)[C@H](CO)N(C)C [dimethylsphingosine],effect of the combination on the inhibitory effect of FTY720,"[1]; combined with FTY720, Nagaoka et al. 2008",augmented the inhibitory effect of FTY720
"CCCCCCC(=O)CCCCCC/C=C/C[C@@H](O)[C@H](O)[C@@](N)(CO)C(=O)O [myriocin, reference compound]",colony formation,[2],had no effect
CCCCCCCCCCCCC/C=C/[C@@H](O)[C@@H](N)CO [sphingosine],growth inhibition,[1],significant growth inhibition
pertussis toxin [reference compound],effect on ST-968-induced p42/44 activation,[4],only partially blocked
